Assay results from PubChem BioAssay AID1963864 (Molecular Pharmacology Branch, DTP, NCI, 2024).

Test system: KRAS PDC multicell spheroid viability
Experiment: Anticancer human tumor 521955-158-R6-J3-PDC patient-derived pancreatic carcinoma cell line growth inhibition [KRAS2]
Conditions: for viability, T/C: stronger effect = lower value
How it was run: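 Combination screen of spheroid viability in tumor-cell co-cultures with endothelial (HUVEC) and mesenchymal stem cell stroma. Each agent was tested in half-log dilutions, topping at clinical Cmax or at 10 microM without a known Cmax.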

[1] = curve of first compound, second compound 0.1 µM
[2] = curve of first compound, second compound 0.316 µM
[3] = curve of first compound, second compound 1 µM
[4] = curve of first compound, second compound 3.16 µM
[5] = curve of first compound, second compound 10 µM
[6] = second compound 0.1 µM, first compound 0.0316 µM
[7] = second compound 0.1 µM, first compound 0.1 µM
[8] = second compound 0.1 µM, first compound 0.316 µM
[9] = second compound 0.1 µM, first compound 1 µM
[10] = second compound 0.1 µM, first compound 3.16 µM
[11] = second compound 0.1 µM, first compound 10 µM
[12] = second compound 0.316 µM, first compound 0.0316 µM
[13] = second compound 0.316 µM, first compound 0.1 µM
[14] = second compound 0.316 µM, first compound 0.316 µM
[15] = second compound 0.316 µM, first compound 1 µM
[16] = second compound 0.316 µM, first compound 3.16 µM
[17] = second compound 0.316 µM, first compound 10 µM
[18] = second compound 1 µM, first compound 0.0316 µM
[19] = second compound 1 µM, first compound 0.1 µM
[20] = second compound 1 µM, first compound 0.316 µM
[21] = second compound 1 µM, first compound 1 µM
[22] = second compound 1 µM, first compound 3.16 µM
[23] = second compound 1 µM, first compound 10 µM
[24] = second compound 3.16 µM, first compound 0.0316 µM
[25] = second compound 3.16 µM, first compound 0.1 µM
[26] = second compound 3.16 µM, first compound 0.316 µM
[27] = second compound 3.16 µM, first compound 1 µM
[28] = second compound 3.16 µM, first compound 3.16 µM
[29] = second compound 3.16 µM, first compound 10 µM
[30] = second compound 10 µM, first compound 0.0316 µM
[31] = second compound 10 µM, first compound 0.1 µM
[32] = second compound 10 µM, first compound 0.316 µM
[33] = second compound 10 µM, first compound 1 µM
[34] = second compound 10 µM, first compound 3.16 µM
[35] = second compound 10 µM, first compound 10 µM
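Note: drug exposure lasted seven days.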
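Throughout, for viability, T/C: 100% = DMSO vehicle wells and lower means fewer viable cells.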

SMILES	IC50 [1] [µM]	IC50 [2] [µM]	IC50 [3] [µM]	IC50 [4] [µM]	viability, T/C [6] [%]	viability, T/C [7] [%]	viability, T/C [8] [%]	viability, T/C [9] [%]	viability, T/C [10] [%]	viability, T/C [12] [%]	viability, T/C [13] [%]	viability, T/C [14] [%]	viability, T/C [15] [%]	viability, T/C [16] [%]	viability, T/C [18] [%]	viability, T/C [19] [%]	viability, T/C [20] [%]	viability, T/C [21] [%]	viability, T/C [22] [%]	viability, T/C [24] [%]	other results
COc1cc2nccc(Oc3ccc(NC(=O)C4(C(=O)Nc5ccc(F)cc5)CC4)cc3)c2cc1OC + C=CC(=O)N1CCN(c2nc(=O)n(-c3c(C)ccnc3C(C)C)c3nc(-c4c(O)cccc4F)c(F)cc23)C(C)C1	> 10	> 10	> 10	> 10	91.9	96.8	96.7	98.1	119	95.3	91.3	102	99.2	115	89.8	106	96.9	104	119	85.5	IC50 [5]: > 10 µM; viability, T/C [11]: 111%; viability, T/C [17]: 122%; viability, T/C [23]: 120%; viability, T/C [25]: 82.9%; viability, T/C [26]: 87.4%; viability, T/C [27]: 85%; viability, T/C [28]: 99.1%; viability, T/C [29]: 90.8%; viability, T/C [30]: 64.9%; viability, T/C [31]: 66.2%; viability, T/C [32]: 52.2%; viability, T/C [33]: 64.8%; viability, T/C [34]: 53%; viability, T/C [35]: 69.9%
COC(=O)c1ccc2c(C(=Nc3ccc(N(C)C(=O)CN4CCN(C)CC4)cc3)c3ccccc3)c(O)[nH]c2c1 + CC1OCC2(CCN(c3cnc(Sc4ccnc(N)c4Cl)c(N)n3)CC2)C1N	2.59	2.15	2.12	2.15	79.8	88.5	108	114	40	82.5	102	110	113	23.6	106	104	111	95.6	25.5	101	IC50 [5]: 1.47 µM; viability, T/C [11]: 1.22%; viability, T/C [17]: 0.76%; viability, T/C [23]: 0.47%; viability, T/C [25]: 120%; viability, T/C [26]: 103%; viability, T/C [27]: 99.2%; viability, T/C [28]: 25.4%; viability, T/C [29]: 0.29%; viability, T/C [30]: 94.8%; viability, T/C [31]: 94.8%; viability, T/C [32]: 83.7%; viability, T/C [33]: 72.2%; viability, T/C [34]: 6.64%; viability, T/C [35]: 2.18%
COc1cc2nc(C)nc(NC(C)c3cc(N)cc(C(F)(F)F)c3)c2cc1OC1CCOC1 (stereo unspecified)	–	–	–	–	–	–	–	–	–	–	–	–	–	–	–	–	–	–	–	–	viability, T/C (compound 0.1 µM): 86.7% [middle of 17 runs]; viability, T/C (compound 0.316 µM): 86.7% [middle of 17 runs]; IC50 (compound alone, run of 08/26/2021): 6.52 µM [middle of 5 runs]
C=CC(=O)N1CCN(c2nc(OCC3CCCN3C)nc3c2CCN(c2cccc4cccc(C)c24)C3)CC1CC#N (stereo unspecified)	–	–	–	–	–	–	–	–	–	–	–	–	–	–	–	–	–	–	–	–	viability, T/C (compound 0.0316 µM): 91.1% [middle of 16 runs]; viability, T/C (compound 0.1 µM): 94.9% [middle of 16 runs]; IC50 (compound alone, run of 09/02/2021): 2.01 µM [middle of 5 runs]
CC1(C)CCC(CN2CCN(c3ccc(C(=O)NS(=O)(=O)c4ccc(NCC5CCOCC5)c([N+](=O)[O-])c4)c(Oc4cnc5[nH]ccc5c4)c3)CC2)=C(c2ccc(Cl)cc2)C1 + CNCc1ccccc1-c1csc(C(C)Nc2nc(C)nc3cc(OC)c(OC)cc23)c1	6.69	5.17	3.81	< 0.0316	98.5	98.1	94.6	97.1	81.3	96.8	90.5	90.2	84.2	71	83	83.6	84.4	82.6	56.8	0.59	IC50 [5]: < 0.0316 µM; viability, T/C [11]: 32.9%; viability, T/C [17]: 23.2%; viability, T/C [23]: 14.7%; viability, T/C [25]: 1.4%; viability, T/C [26]: 0.57%; viability, T/C [27]: 0.81%; viability, T/C [28]: 1.65%; viability, T/C [29]: 3.03%; viability, T/C [30]: 0.22%; viability, T/C [31]: 0.61%; viability, T/C [32]: 0.21%; viability, T/C [33]: 0.23%; viability, T/C [34]: 1.01%; viability, T/C [35]: 0.27%
CC1COCCN1c1cc(-c2ccnn2C)c2ccnc(-c3ccn[nH]3)c2n1 (stereo unspecified) + C=CC(=O)N1CCN(c2nc(OCC3CCCN3C)nc3c2CCN(c2cccc4cccc(C)c24)C3)CC1CC#N	> 3.16	> 3.16	> 3.16	0.0121	95.3	77	71.4	75	94.5	85.1	73.1	74.7	73.6	76.8	79	68	69.4	59.9	71.7	39.7	IC50 (curve of first compound, second compound 0.0316 µM): > 3.16 µM; viability, T/C (second compound 0.0316 µM, first compound 0.01 µM): 88%; viability, T/C (second compound 0.0316 µM, first compound 0.0316 µM): 90.2%; viability, T/C (second compound 0.0316 µM, first compound 0.1 µM): 89.7%; viability, T/C (second compound 0.0316 µM, first compound 0.316 µM): 79.8%; viability, T/C (second compound 0.0316 µM, first compound 1 µM): 78.8%; viability, T/C (second compound 0.0316 µM, first compound 3.16 µM): 92.9%; viability, T/C (second compound 0.1 µM, first compound 0.01 µM): 92.6%; viability, T/C (second compound 0.316 µM, first compound 0.01 µM): 89.5%; viability, T/C (second compound 1 µM, first compound 0.01 µM): 71.7%; viability, T/C (second compound 3.16 µM, first compound 0.01 µM): 52.2%; viability, T/C [25]: 31.9%; viability, T/C [26]: 36.5%; viability, T/C [27]: 27.6%; viability, T/C [28]: 45.8%
COC(=O)c1ccc2c(C(=Nc3ccc(N(C)C(=O)CN4CCN(C)CC4)cc3)c3ccccc3)c(O)[nH]c2c1 + C=CC(=O)N1CCN(c2nc(=O)n(-c3c(C)ccnc3C(C)C)c3nc(-c4c(O)cccc4F)c(F)cc23)C(C)C1	4.73	3.96	3.14	3.84	96.2	102	116	119	76.8	92.8	108	120	128	61.9	103	110	119	128	49.6	108	IC50 [5]: 3.77 µM; viability, T/C [11]: 0.24%; viability, T/C [17]: 0.9%; viability, T/C [23]: 3.61%; viability, T/C [25]: 94.6%; viability, T/C [26]: 94.2%; viability, T/C [27]: 123%; viability, T/C [28]: 59.9%; viability, T/C [29]: 1.53%; viability, T/C [30]: 82.5%; viability, T/C [31]: 83.3%; viability, T/C [32]: 88.9%; viability, T/C [33]: 89%; viability, T/C [34]: 59%; viability, T/C [35]: 0.68%
